Assay results as given in patent US7795456B2, “Insecticidal N-substituted sulfoximines” (Dow AgroSciences LLC, priority 2004, dated 2010).

What was measured:
[1] = system: yellow fever mosquito (Aedes aegypti) larvae; assay: whole plant or invertebrate; assay type: in vivo; settings: 72 h, read-out: YFM 26: % control at 26 ppm against yellow fever mosquito in submerge tests
[2] = system: beet armyworm (Spodoptera exigua); settings: 50 μg/cm2, second-instar larvae, 5 days
[3] = system: corn earworm (Helicoverpa zea); settings: 50 μg/cm2, second-instar larvae, 5 days
[4] = system: Colorado potato beetle (Leptinotarsa decemlineata); assay: Insecticidal test for Colorado potato beetle, foliar spray on tomato; assay type: in vivo; settings: for % Control at ppm, against Colorado potato beetle: 12.5: 12.5 ppm; for % Control at ppm, against Colorado potato beetle: 12.5 / % Control at ppm, against Colorado potato beetle: 50 / % Control at ppm, against Colorado potato beetle: 0.78 / % Control at ppm, against Colorado potato beetle: 3.13: rundown assay; for CPB 50: % control at 50 ppm against Colorado potato beetle in foliar spray tests: 5 days, Corrected % Control; for CPB 50: % control at 50 ppm against Colorado potato beetle in foliar spray tests / % Control at ppm, against Colorado potato beetle: 50: 50 ppm; for % Control at ppm, against Colorado potato beetle: 0.78: 0.78 ppm; for % Control at ppm, against Colorado potato beetle: 3.13: 3.13 ppm
Procedure: Insecticidal Test for Colorado Potato Beetle (Leptinotarsa decemlineata).
Tomato seedlings at the growth stage of three or four expanding leaves were used. […] Treated plants were held in the laboratory for approximately 3 h to allow drying before the upper portion (with two or three leaves) of a plant was cut and placed in a 10×2.5-cm petri dish containing approximately 10 mL of solidified 1% agar at the bottom. Five 2nd or 3rd instar larvae were placed on the treated plant tissue, and the petri dishes were covered and held in an incubator at 25° C. At 5 days following treatment, insecticidal activity was evaluated by counting the number of live larvae in each dish.

[5] = system: fruit fly (Drosophila melanogaster); settings: for FF SYM: % showing intoxicated symptoms at 25 μg/cm2 against fruit fly in dietary tests: 25 μg/cm2, 4 h; for FF 25: % mortality at 25 μg/cm2 against fruit fly in dietary tests: 25 μg/cm2, 48 h
[6] = system: cotton aphid (Aphis gossypii); assay: Insecticidal test for cotton aphid, foliar spray on squash; settings: for pest or weed control at 50 ppm / pest or weed control at 200 ppm: Aphis gossypii, foliar, 72 h; for pest or weed control at 50 ppm: read-out: CA 50: % control at 50 ppm against cotton aphid in foliar spray tests; for pest or weed control at 200 ppm: read-out: CA 200: % control at 200 ppm against cotton aphid in foliar spray tests; for % Control at ppm, against cotton aphid: 0.049: 0.049 ppm; for % Control at ppm, against cotton aphid: 0.195: 0.195 ppm; for % Control at ppm, against cotton aphid: 0.78: 0.78 ppm; for % Control at ppm, against cotton aphid: 3.12: 3.12 ppm; for % Control at ppm, against cotton aphid: 12.5: 12.5 ppm; for % Control at ppm, against cotton aphid: 50: 50 ppm
[7] = system: beet armyworm (Spodoptera exigua); assay: Insecticidal test for beet armyworm in injection assays; settings: 1 h, read-out: BAW SYM: % showing intoxicated symptoms at 10 μg/larva against beet armyworm in injection tests
[8] = system: sweet potato whitefly (Bemisia tabaci); assay: Insecticidal test for sweet potato whitefly, foliar spray on cotton; settings: for % Control at ppm, against sweet potato whitefly: 0.4-0.78: 0.4-0.78 ppm; for % Control at ppm, against sweet potato whitefly: 0.4-0.78 / % Control at ppm, against sweet potato whitefly: 2-3.13 / % Control at ppm, against sweet potato whitefly: 10-12.5 / % Control at ppm, against sweet potato whitefly: 50: rundown assay; for % Control at ppm, against sweet potato whitefly: 2-3.13: 2-3.13 ppm; for % Control at ppm, against sweet potato whitefly: 10-12.5: 10-12.5 ppm; for % Control at ppm, against sweet potato whitefly: 50: 50 ppm; for pest or weed control at 200 ppm: Bemisia tabaci, in Gossypium hirsutum, foliar, read-out: SPW 200: % control at 200 ppm against sweet potato whitefly in foliar spray tests
[9] = system: green peach aphid (Myzus persicae); assay: Insecticidal test for green peach aphid, foliar spray on cabbage seedlings; settings: rundown assay, 3 days; for % Control at ppm, against green peach aphid: 0.049: 0.049 ppm; for % Control at ppm, against green peach aphid: 0.195: 0.195 ppm; for % Control at ppm, against green peach aphid: 0.78: 0.78 ppm; for % Control at ppm, against green peach aphid: 3.12: 3.12 ppm; for % Control at ppm, against green peach aphid: 12.5: 12.5 ppm; for % Control at ppm, against green peach aphid: 50: 50 ppm

Structure (SMILES) | pest or weed control at 26 ppm [1] [%] | BAW 50: % mortality at 50 μg/cm2 against beet armyworm in dietary tests [2] | CEW 50: % mortality at 50 μg/cm2 against corn earworm in dietary tests [3] | % Control at ppm, against Colorado potato beetle: 12.5 [4] | CPB 50: % control at 50 ppm against Colorado potato beetle in foliar spray tests [4] | % Control at ppm, against Colorado potato beetle: 50 [4] | FF SYM: % showing intoxicated symptoms at 25 μg/cm2 against fruit fly in dietary tests [5] | FF 25: % mortality at 25 μg/cm2 against fruit fly in dietary tests [5] | pest or weed control at 50 ppm [6] [%] | pest or weed control at 200 ppm [6] [%] | pest or weed control at 0.01 mg [7] [%] | % Control at ppm, against sweet potato whitefly: 0.4-0.78 [8] | % Control at ppm, against sweet potato whitefly: 2-3.13 [8] | % Control at ppm, against sweet potato whitefly: 10-12.5 [8] | % Control at ppm, against sweet potato whitefly: 50 [8] | pest or weed control at 200 ppm [8] [%] | % Control at ppm, against Colorado potato beetle: 3.13 [4] | % Control at ppm, against cotton aphid: 0.049 ([6]; rundown assay) | % Control at ppm, against cotton aphid: 0.195 ([6]; rundown assay) | % Control at ppm, against cotton aphid: 0.78 ([6]; rundown assay) | also measured
CS(=O)(Cc1ccc(Cl)nc1)=NC#N (stereo not drawn) [Compound 10, [(6-Chloropyridin-3-yl)methyl](methyl)oxido-λ^4-sulfanylidene-cyanamide] | 90 to 100 | G (Inactive) | G (Inactive) | E (50-59) | B (80-89) | B (80-89) | A (90-100) | A (90-100) | 90 to 100 | 90 to 100 | < 50 | F (Less than 50) | D (60-69) | A (90-100) | A (90-100) | 90 to 100 | – | – | – | – | –
N#CN=[S@@]1(=O)CCCC1Cc1ccc(Cl)nc1 (stereo partly drawn) [Compound 20] | 90 to 100 | G (Inactive) | G (Inactive) | A (90-100) | A (90-100) | A (90-100) | F (Less than 50) | F (Less than 50) | 90 to 100 | 90 to 100 | 80 to 89 | F (Less than 50) | F (Less than 50) | A (90-100) | A (90-100) | 90 to 100 | F (Less than 50) | B (80-89) | A (90-100) | A (90-100) | % Control at ppm, against Colorado potato beetle: 0.78 [4]: F (Less than 50); % Control at ppm, against cotton aphid: 3.12 ([6]; rundown assay): A (90-100); % Control at ppm, against cotton aphid: 12.5 ([6]; rundown assay): A (90-100); % Control at ppm, against cotton aphid: 50 ([6]; rundown assay): A (90-100); % Control at ppm, against green peach aphid: 0.049 [9]: F (Less than 50); % Control at ppm, against green peach aphid: 0.195 [9]: F (Less than 50); % Control at ppm, against green peach aphid: 0.78 [9]: F (Less than 50); % Control at ppm, against green peach aphid: 3.12 [9]: F (Less than 50); % Control at ppm, against green peach aphid: 12.5 [9]: A (90-100); % Control at ppm, against green peach aphid: 50 [9]: A (90-100)
CC(c1ccc(Cl)nc1)[S@](C)(=O)=NC#N (stereo partly drawn) [Compound 29] | 90 to 100 | G (Inactive) | G (Inactive) | – | – | – | A (90-100) | A (90-100) | 90 to 100 | 90 to 100 | 90 to 100 | A (90-100) | A (90-100) | A (90-100) | A (90-100) | 90 to 100 | – | A (90-100) | A (90-100) | A (90-100) | % Control at ppm, against cotton aphid: 0.012 ([6]; 0.012 ppm, rundown assay): A (90-100); % Control at ppm, against cotton aphid: 3.12 ([6]; rundown assay): A (90-100); % Control at ppm, against green peach aphid: 0.012 ([9]; 0.012 ppm): F (Less than 50); % Control at ppm, against green peach aphid: 0.049 [9]: D (60-69); % Control at ppm, against green peach aphid: 0.195 [9]: A (90-100); % Control at ppm, against green peach aphid: 0.78 [9]: A (90-100); % Control at ppm, against green peach aphid: 3.12 [9]: A (90-100)
CC(c1ccc(Cl)nc1)S(C)(=O)=NC#N (stereo not drawn) [Compound 8, [1-(6-chloropyridin-3-yl)ethyl](methyl)oxido-λ^4-sulfanylidenecyanamide] | 90 to 100 | G (Inactive) | G (Inactive) | A (90-100) | A (90-100) | A (90-100) | A (90-100) | A (90-100) | 90 to 100 | 90 to 100 | 50 to 59 | A (90-100) | A (90-100) | A (90-100) | A (90-100) | 90 to 100 | D (60-69) | – | – | – | –
O=[N+]([O-])N=S1(=O)CCCC1Cc1ccc(Cl)nc1 (stereo not drawn) [Compound 35] | 80 to 89 | G (Inactive) | G (Inactive) | – | B (80-89) | – | D (60-69) | F (Less than 50) | 90 to 100 | 90 to 100 | < 50 | – | – | – | – | 90 to 100 | – | – | – | – | –
O=[N+]([O-])N=[S@@]1(=O)CCCC1Cc1ccc(Cl)nc1 (stereo partly drawn) [Compound 41] | 90 to 100 | G (Inactive) | G (Inactive) | D (60-69) | A (90-100) | A (90-100) | – | F (Less than 50) | 90 to 100 | 90 to 100 | – | – | – | – | – | 90 to 100 | F (Less than 50) | C (70-79) | A (90-100) | A (90-100) | % Control at ppm, against Colorado potato beetle: 0.78 [4]: F (Less than 50); % Control at ppm, against cotton aphid: 3.12 ([6]; rundown assay): A (90-100); % Control at ppm, against cotton aphid: 12.5 ([6]; rundown assay): A (90-100); % Control at ppm, against cotton aphid: 50 ([6]; rundown assay): A (90-100); % Control at ppm, against green peach aphid: 0.049 [9]: F (Less than 50); % Control at ppm, against green peach aphid: 0.195 [9]: F (Less than 50); % Control at ppm, against green peach aphid: 0.78 [9]: E (50-59); % Control at ppm, against green peach aphid: 3.12 [9]: D (60-69); % Control at ppm, against green peach aphid: 12.5 [9]: A (90-100); % Control at ppm, against green peach aphid: 50 [9]: A (90-100)
